Data as given in patent US9605296B2, “Fluorogenic peptidase substrate” (ECOLE NORMALE SUPERIEURE DE LYON, priority 2011, dated 2017).

Assays:
[1] = molecular target: T1, microsomal leucine aminopeptidase (EC 3.4.11.2; PLA) (Sus scrofa, UniProt P15145); test: Enzymatic test: fluorescence of probes incubated with microsomal leucine aminopeptidase (PLA) in multi-well plates; format: biochemical, pig; conditions: for Delay for obtaining an intense increase in the signal: different probe concentrations, FIG. 5, generally less than 100 minutes
T1 construct: The microsomal leucine aminopeptidase (EC 3.4.11.2) of pig kidney was purchased from Sigma; purchased Sigma 069K7356; host or cells: pig kidney (tissue-derived enzyme)
T1 sequence (P15145 1-963): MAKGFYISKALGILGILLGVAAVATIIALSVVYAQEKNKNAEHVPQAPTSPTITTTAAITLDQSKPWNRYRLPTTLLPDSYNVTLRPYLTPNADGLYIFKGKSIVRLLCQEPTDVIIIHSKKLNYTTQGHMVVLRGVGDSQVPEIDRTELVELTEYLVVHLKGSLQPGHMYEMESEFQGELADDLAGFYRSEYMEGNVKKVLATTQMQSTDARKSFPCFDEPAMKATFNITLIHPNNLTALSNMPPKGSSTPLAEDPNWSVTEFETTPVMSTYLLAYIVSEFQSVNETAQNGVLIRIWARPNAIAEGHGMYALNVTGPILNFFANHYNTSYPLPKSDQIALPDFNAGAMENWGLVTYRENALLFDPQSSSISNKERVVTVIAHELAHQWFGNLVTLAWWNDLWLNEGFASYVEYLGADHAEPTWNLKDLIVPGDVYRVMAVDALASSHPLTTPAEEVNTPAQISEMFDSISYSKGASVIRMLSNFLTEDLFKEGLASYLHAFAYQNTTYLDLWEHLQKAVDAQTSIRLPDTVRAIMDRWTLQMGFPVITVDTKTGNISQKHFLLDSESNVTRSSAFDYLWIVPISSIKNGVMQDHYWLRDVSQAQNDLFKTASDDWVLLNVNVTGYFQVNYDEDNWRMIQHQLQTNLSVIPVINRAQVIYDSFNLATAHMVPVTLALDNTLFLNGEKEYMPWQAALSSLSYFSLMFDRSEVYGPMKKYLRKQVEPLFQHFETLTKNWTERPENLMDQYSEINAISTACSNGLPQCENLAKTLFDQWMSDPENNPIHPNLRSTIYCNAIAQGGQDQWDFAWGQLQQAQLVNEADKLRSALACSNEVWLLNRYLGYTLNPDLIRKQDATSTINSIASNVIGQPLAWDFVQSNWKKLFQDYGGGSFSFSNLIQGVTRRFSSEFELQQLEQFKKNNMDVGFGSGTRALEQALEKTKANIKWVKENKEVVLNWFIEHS
Method: Preamble: Within the scope of the invention, upon applying the enzymatic tests, once the minimum, concentration allowing triggering of crystal nucleation is reached, a solid fluorophore may first be deposited on the walls of the receptacle (a well in a multi-well plate), before beginning to deposit on the bottom of the receptacle. The delay associated with the triggering of nucleation (≧10 mins) is well seen on the kinetic curves in the figures shown. The enzymatic tests carried out are illustrated with the appended figures.
(§1) The probes I.1 and I.2 were evaluated by incubation with the target enzyme, microsomal leucine aminopeptidase (EC 3.4.11.2; “PLA”; commercial) in an in vitro medium in multi-well micro-plates designed for fluorescence readers.
The main tests were conducted at 25° C., in solutions buffered to pH 7.4 (physiological pH). […] A temperature of 25° C. was therefore preferred.
(§2) All the final solutions for the enzymatic tests were buffered to a pH varying from 7.4 to 7.6 (depending on the room temperature) with a 25 mM (total concentration) of Tris/Tris.HCl buffer, containing 11 mM of NaCl. The microsomal leucine aminopeptidase (EC 3.4.11.2) of pig kidney was purchased from Sigma (catalogue no. 069K7356) in the form of a suspension in ammonium sulfate (3.5 M) containing MgCl2 (10 mM), with 3.5 mg·mL^−1 of protein contents and 10-40 U/mg of protein, as determined for the standard substrate, leucyl p-nitroanilide, and was stored in a fridge at 4° C. for a maximum of 40 days before its use. […] Analyses Carried Out:
(§3) The analyses were carried out with reading of the fluorescence values, measured in RFU, versus time. The analyses were conducted in black polypropylene plates with 96 (Corning, Corning Inc.) or with 384 (Nunclon, Nunc Inc.) wells, and recorded on a microplate fluorimeter (Mithras LB940 from Berthold Technologies). This fluorimeter was used in a so-called repeated mode, where the fluorescence was measured with a reading, here selected to be 3 seconds per well, the excitation beam with a diameter of 4 mm being centered in the well. […] It should be noted that this mode of use is close to the operation of optical high throughput screening by fluorescence, which is one of the applications envisioned for these types of probes. […] In the scanning mode, the wells were divided into a square read-out grid, typically covering the well with a resolution of 8×8 to 15×15 pixels, each of the pixels being read between 0.1 and 0.3 s. This scanning mode partly removes the errors and the read-out noise of the total fluorescence of the well subject to the repeated mode, subsequently to the tendency of the fluorophore once it is released of depositing a first phase on the walls. The scanning mode as implemented here is also slower and less suitable for qualitatively following reaction kinetics. It should be noted that this mode of use is close to the operation of cell counting, which is a second application envisioned for these types of probes.
The excitation wavelength for the probes I.1 and I.2 (based on HPQ) was set to 355 nm, and the localized emission wavelength was set to 510 nm, since the fluorimeter used has filters of the bandpass type for selecting these wavelengths with a bandwidth of 14 nm for the excitation beam and of 10 nm for the emission one.
The enzyme was added last to the prepared wells. After adding the enzyme, the contents of the well were sucked up and released twice with a pipette, in order to homogenize as much as possible the mixture. […] The addition of the enzyme well by well was accomplished by observing the reading delay between the wells, so that the reaction times of each well were the same for each readout of the plate in order to allow comparison of the acquired data for different wells (in these experiments, there was a delay between 3 seconds and 20 seconds, between the readout of the neighboring wells, to be multiplied by up to 77 wells read by acquisition at a time t). […]

[2] = Stability controls: fluorescence of probes in buffered aqueous solution without PLA enzyme (spontaneous hydrolysis, falsely positive signal); format: physicochemical; conditions: for Signal increase relative to noise in the absence of enzyme (stability to spontaneous hydrolysis): 100 μM, 660 minutes, buffered pH ~7.6, no PLA, FIG. 4
Method: as §1, §2, §3
A series of control measurements of background fluorescence was carried out, with wells containing some enzyme in the standard buffer without any probe. A last series of measurements was conducted by using a solution of probe I.1 prepared three weeks beforehand (“3 wks”), in order to obtain another estimation of the robustness of this probe towards spontaneous hydrolysis in practice. Each readout lasted for 3 seconds per well. […]

[3] = Solubility in water / aqueous media (observation); conditions: solid tosylate; dissolves easily in MeOH then dilutable with water
[4] = actual 10 μM, plateau not reached, underestimated
[5] = actual 18 μM, plateau not reached, underestimated

Row | Compound | Predicted Conc. (initial probe concentration estimated from the average ratio) [1, 4] [µM] | Predicted Conc. (initial probe concentration estimated from the average ratio) [1, 5] [µM] | Predicted Conc. (initial probe concentration estimated from the average ratio) ([1]; actual 32 μM) [µM] | Predicted Conc. (initial probe concentration estimated from the average ratio) ([1]; actual 59 μM) [µM] | Predicted Conc. (initial probe concentration estimated from the average ratio) ([1]; actual 100 μM) [µM] | Predicted Conc. (initial probe concentration estimated from the average ratio) ([1]; actual 378 μM, 3 wks stored solution) [µM] | Signal/Conc. (signal plateau/concentration ratio) ([1]; probe 32 μM, with PLA) [RFU μM^−1] | Signal/Conc. (signal plateau/concentration ratio) ([1]; probe 59 μM, with PLA) [RFU μM^−1] | Signal/Conc. (signal plateau/concentration ratio) ([1]; probe 100 μM, with PLA) [RFU μM^−1] | Signal/Conc. (signal plateau/concentration ratio) ([1]; probe 378 μM, 3 wks stored solution, with PLA) [RFU μM^−1] | Photo-degradation: signals once the plateau is reached, under irradiation of the fluorescence reader ([1]; with PLA, 11 h acquisition, FIG. 6) | Delay for obtaining an intense increase in the signal ([1]; with PLA) | Signal increase relative to noise in the absence of enzyme (stability to spontaneous hydrolysis) [2] | Falsely positive signal due to spontaneous hydrolysis of the probe ([2]; probe 209 μM and 80 μM without enzyme, 40 hours of incubation, FIG. 1) | Solubility in water [3] | Degradation in the absence of enzyme ([2]; probe 100 μM without enzyme, FIG. 3)
1 | CC(C)C[C@H](N)C(=O)NCC1CCCCN1C(=O)Oc1ccccc1-c1nc2ccccc2c(=O)[nH]1 (some centres unmarked) [I.1] | 0 | 6 | 26 | 42 | 108 | 419 | 72794 | 63054 | 95711 | 98684 | do not decrease over time | about 10 minutes | NO signal increase | absence of any falsely positive signal due to spontaneous hydrolysis of the probe | not very soluble in water | 
2 | CC(C)C[C@H](N)C(=O)NCC(C)(C)N(C)C(=O)Oc1ccccc1-c1nc2ccccc2c(=O)[nH]1 [I.2] | 1 | 6 | 40 | 63 | 98 |  | 110289 | 95096 | 87269 |  |  | about 10 minutes | NO signal increase |  |  | does not degrade in the absence of enzyme
